Like-named read-outs stand apart in the source and are kept apart here.
Tests used:
[1] = tested on: L. donovani amastigotes in mouse peritoneal macrophages; assay: Activity against Leishmania donovani intramacrophage amastigotes (high-content imaging); type: cell-based; settings: Leishmania donovani, Peritoneal macrophage, 96 h, read-out: IC50 L. donovani Intramacrophage
Experimental: (§1) Macrophages were isolated from the mouse (CDI) peritoneal cavity ([Zhang et al., 2008]) using 2% starch solution as eliciting agent injected 2 day prior to cell harvest. Animal work was carried out according to the rules and regulations for the protection of animal rights (“Tierschutzverordnung”) of the Swiss “Bundesamt für Veterinärwesen” (License number 2374). Mouse peritoneal macrophages (4 × 10^4 in 100 µL RPMI 1640 medium with 10% heat-inactivated FBS) were seeded into wells of a 96-well plate. After 24 h, 2 × 10^5 amastigote L. donovani in 100 µL were added. The amastigotes were taken from an axenic amastigote culture grown at pH 5.4. The medium containing free amastigote forms was removed after 24 h and replaced with fresh medium. The washing step was repeated and afterward the serial drug dilution was prepared with at least 6 dilution steps. Compounds were dissolved in DMSO at 10 mg/ml and further diluted in medium. After 96 h of incubation at 37°C under a 5% CO2 atmosphere, the medium was removed, and cells were fixed by adding 50 µl 4% formaldehyde solution followed by a staining with a 5 µM DRAQ5 solution. Plates were imaged in ImageXpress XLS (MD) microscope using a 20× air objective (635 nm excitation: 690/50 emission). 9 images were collected per well. Automated image analysis was performed with a script developed on Meta Xpress Software (MD). Three outputs were provided for each well: i) number of host cell nuclei; ii) numbers of infected and non-infected host cells; iii) number of parasite nuclei per infected host cell. The IC50 values were calculated based on the infection rate and the numbers of intracellular amastigotes. The cytotoxicity to macrophages was determined in parallel, and IC50 values were calculated based on the numbers of surviving, uninfected macrophages. Miltefosine was used as control. Assays were performed in two independent replicates at least.

[2] = tested on: P. falciparum NF54 erythrocytic stages; assay: Activity against Plasmodium falciparum (3H-hypoxanthine incorporation); type: cell-based; settings: for Selectivity index (SI): IC50 in L6 cells divided by IC50 in P. falciparum: L6 cells vs P. falciparum NF54
Experimental: In vitro activity against the erythrocytic stages of P. falciparum was determined using a ^3H-hypoxanthine incorporation assay ([Desjardins et al., 1979]), using the drug sensitive NF54 strain ([Ponnudurai et al., 1981]). Compounds were dissolved in DMSO at 10 mg/ml and further diluted in medium before addition to parasite cultures incubated in RPMI 1640 medium without hypoxanthine, supplemented with HEPES (5.94 g/L), NaHCO3 (2.1 g/L), neomycin (100 U/ml), Albumax^R (5 g/L), and washed human red cells A^+ at 2.5% haematocrit (0.3% parasitemia). Serial drug dilutions of 11 three-fold dilution steps covering a range from 100 to 0.002 μg/ml were prepared. The 96-well plates were incubated in a humidified atmosphere at 37°C; 4% CO2, 3% O2, 93% N2. After 48 h, 50 μl of ^3H-hypoxanthine (=0.5 μCi) was added to each well of the plate. The plates were incubated for a further 24 h under the same conditions. The plates were then harvested with a Betaplate™ cell harvester (Wallac, Zurich, Switzerland), the red blood cells transferred onto a glass fibre filter, and lysed with distilled water. The dried filters were inserted into a plastic foil with 10 ml of scintillation fluid and counted in a Betaplate™ liquid scintillation counter (Wallac, Zurich, Switzerland). IC50 values were calculated from sigmoidal inhibition curves by linear regression using Microsoft Excel. Chloroquine (Sigma C6628) was used as control. Assays were performed in two independent replicates at least.

[3] = In vitro cytotoxicity with L-6 cells (resazurin); type: cell-based, rat; settings: rat, L6 cells, 70 h + 2 h resazurin, mean ± absolute deviation
Experimental: (§2) Assays were performed in 96-well microtiter plates, each well containing 100 µl of RPMI 1640 medium supplemented with 1% L-glutamine (200 mM) and 10% fetal bovine serum, and 4000 L-6 cells (a primary cell line derived from rat skeletal myoblasts) ([Ahmed et al., 1994]). Serial drug dilutions of 11 three-fold dilution steps covering a range from 100 to 0.002 μg/ml were prepared 24 h post seeding L-6 cells. The plates were incubated for 70 h and inspected under an inverted microscope to assure growth of the controls and sterile conditions. 10 µl of resazurin was then added to each well and the plates incubated for another 2 h. Then the plates were read with a Spectramax Gemini XS microplate fluorometer (Molecular Devices Cooperation, Sunnyvale, CA, USA) using an excitation wavelength of 536 nm and an emission wavelength of 588 nm. The IC50 values were calculated by linear regression and four-parameter logistic regression from the sigmoidal dose inhibition curves using SoftmaxPro software (Molecular Devices Cooperation, Sunnyvale, CA, USA). Podophyllotoxin (Sigma P4405) was used as positive control. All assays were performed in two independent replicates at least. Activities of all compounds were expressed in µM using the formula: […]

[4] = tested on: T. b. rhodesiense STIB 900 bloodstream forms; assay: Activity against Trypanosoma brucei rhodesiense STIB900 (resazurin); type: cell-based; settings: for IC50: Trypanosoma brucei, 70 h, STIB 900 bloodstream forms, 70 h + resazurin, mean ± absolute deviation; for Selectivity index (SI): IC50 in L6 cells divided by IC50 in T. b. rhodesiense: L6 cells vs T. b. rhodesiense STIB 900
Experimental: The stock was originally isolated from a patient and adapted to axenic culture conditions after several mouse passages and cloned. Minimum Essential Medium (50 µl) supplemented with 25 mM HEPES, 1 g/L additional glucose, 1% MEM non-essential amino acids (100×), 0.2 mM 2-mercaptoethanol, 1 mM Na-pyruvate ([Baltz et al., 1985]) and 15% heat inactivated horse serum was added to each well of a 96-well microtiter plate. Serial drug dilutions of eleven 3-fold dilution steps covering a range from 100 to 0.002 μg/ml were prepared. Then 4 × 10^3 bloodstream forms of T. b. rhodesiense STIB 900 in 50 µL were added to each well and the plate incubated for 70 h at 37°C and under a 5% CO2 atmosphere. 10 µL resazurin solution (resazurin, 12.5 mg in 100 ml double-distilled water) was then added to each well and incubation continued for a further 2–4 h ([Räz et al., 1997]). Plates were read with a Spectramax Gemini XS microplate fluorometer (Molecular Devices Cooperation, Sunnyvale, CA, USA) using an excitation wavelength of 536 nm and an emission wavelength of 588 nm. […] Melarsoprol (Arsobal Sanofi-Aventis, received from WHO) was used as control. Assays were performed in two independent replicates at least.

[5] = tested on: L. donovani strain MHOM/ET/67/L82 axenic amastigotes; assay: Activity against Leishmania donovani axenic amastigotes (resazurin); type: cell-based; settings: for IC50: Leishmania donovani, mean ± absolute deviation, at least two replicates; for Selectivity index (SI): IC50 in L6 cells divided by IC50 in L. donovani axenic amastigotes: L6 cells vs axenic L. donovani
Experimental: Amastigotes of L. donovani strain MHOM/ET/67/L82 were grown under an atmosphere of 5% CO2 in air in axenic culture at 37°C in SM medium ([Cunningham, 1977]) at pH 5.4 supplemented with 10% heat-inactivated fetal bovine serum. 50 µL of culture medium was added in the wells of a 96-well plate and serial drug dilutions of eleven three-fold dilution steps covering a final range from 100 to 0.002 μg/ml were prepared. 50 µL culture medium with 2 × 10^5 amastigotes from axenic culture were added to each well. After 70 h of incubation the plates were inspected under an inverted microscope to assure growth of the controls and sterile conditions. 10 μl of resazurin (12.5 mg resazurin dissolved in 100 ml distilled water) were added to each well and the plates incubated for another 2 h. Then the plates were read with a Spectramax Gemini XS microplate fluorometer (Molecular Devices Cooperation, Sunnyvale, CA, USA) using an excitation wavelength of 536 nm and an emission wavelength of 588 nm. Data were analyzed using the software Softmax Pro (Molecular Devices Cooperation, Sunnyvale, CA, USA). Decrease of fluorescence (= inhibition) was expressed as percentage of the fluorescence of untreated control cultures and plotted against the drug concentrations. From the sigmoidal inhibition curves the IC50 values were calculated. Miltefosine was used as positive control drug. Assays were performed in two independent replicates at least.

[6] = Cytotoxicity to macrophages determined in parallel to the intramacrophage assay; type: cell-based; settings: CDI, surviving, uninfected mouse peritoneal macrophages
Experimental: as §1

[7] = tested on: L-6 cells (rat skeletal myoblasts); assay: In vitro cytotoxicity with L-6 cells (resazurin); type: cell-based; settings: 70 h + 2 h resazurin, mean ± absolute deviation
Experimental: as §2

[8] = amastigotes in mouse peritoneal macrophages
[9] = Plasmodium falciparum, NF54, 72 h, NF54 drug sensitive strain, erythrocytic stages, 72 h, mean ± absolute deviation, read-out: IC50 P. falciparum
[10] = pH 5.4, axenic amastigotes, MHOM/ET/67/L82, pH 5.4, 70 h + 2 h resazurin, read-out: IC50 L. donovani Axenic
[11] = Plasmodium falciparum, NF54, 72 h, read-out: IC50 P. falciparum, NF54 drug sensitive strain, erythrocytic stages, 72 h, mean ± absolute deviation

| IC50 [2, 9] [µM] | IC50 ([2]; NF54 drug sensitive strain, erythrocytic stages, 72 h, mean ± absolute deviation, read-out: IC50 P. falciparum) [µM] | SMILES | IC50 [1, 8] [µM] | IC50 P. falciparum ([2]; NF54 drug sensitive strain, erythrocytic stages, 72 h, mean ± absolute deviation) | IC50 at 70 h [3] [µM] | IC50 [4] [µM] | IC50 [5, 10] [µM] | IC50 at 96 h [6] [µM] | IC50 [2, 11] [µM] | IC50 [1] [µM] | IC50 ([5]; pH 5.4, read-out: IC50 L. donovani Axenic, axenic amastigotes, MHOM/ET/67/L82, pH 5.4, 70 h + 2 h resazurin) [µM] | Selectivity index (SI): IC50 in L6 cells divided by IC50 in P. falciparum [2] | IC50 L6 cells (cytotoxicity) [7] | Selectivity index (SI): IC50 in L6 cells divided by IC50 in T. b. rhodesiense [4] | Selectivity index (SI): IC50 in L6 cells divided by IC50 in L. donovani axenic amastigotes [5] | IC50 at 70 h ([3]; L-6 cells (rat skeletal myoblasts)) [µM] |
| --- | --- | --- | --- | --- | --- | --- | --- | --- | --- | --- | --- | --- | --- | --- | --- | --- |
| – | – | COc1ccc(CC2c3cc(OC)c(OC)cc3CCN2C)cc1OC (stereo not shown) [Compound 9, Laudanosine] | > 186 | – | 280 | > 80 | > 150 | > 245 | 76.1 ± 21.6 | – | – | – | – | – | – | – |
| – | – | COc1ccc(C[C@@H]2c3cc(OC)c(OC)cc3CCN2C)cc1O [Compound 8, Laudanine] | – | – | 292 | > 80 | – | > 200 | 78.6 ± 0.4 | > 292 | > 150 | – | – | – | – | – |
| < 20 | 18.2 ± 6.7 | COc1ccc(-c2oc3cc(O)cc(O)c3c(=O)c2OC)cc1O [Compound 5, Quercetin-3,4′-dimethylether] | > 33.3 | – | – | 6.6 ± 3.2 | 15 to 22 | 42.7 ± 12.1 | – | – | – | 1.1 | significant cytotoxicity | 2.9 | 1.3 | – |
| 73.2 ± 5.9 | – | O=C1C[C@@H](c2ccc(O)cc2)Oc2cc(O)cc(O)c21 [Compound 4, Naringenin] | > 121 | – | – | – | 41.8 ± 9.3 | 333 ± 18.2 | – | – | – | 3.2 | – | 1.3 | 5.6 | 233 ± 36.9 |

| SMILES | IC50 [2, 9] [µM] | IC50 ([2]; NF54 drug sensitive strain, erythrocytic stages, 72 h, mean ± absolute deviation, read-out: IC50 P. falciparum) [µM] | IC50 [1, 8] [µM] | IC50 P. falciparum ([2]; NF54 drug sensitive strain, erythrocytic stages, 72 h, mean ± absolute deviation) | IC50 at 70 h [3] [µM] | IC50 [4] [µM] | IC50 [5, 10] [µM] | IC50 at 96 h [6] [µM] | IC50 [2, 11] [µM] | IC50 [1] [µM] | IC50 ([5]; pH 5.4, read-out: IC50 L. donovani Axenic, axenic amastigotes, MHOM/ET/67/L82, pH 5.4, 70 h + 2 h resazurin) [µM] | Selectivity index (SI): IC50 in L6 cells divided by IC50 in P. falciparum [2] | IC50 L6 cells (cytotoxicity) [7] | Selectivity index (SI): IC50 in L6 cells divided by IC50 in T. b. rhodesiense [4] | Selectivity index (SI): IC50 in L6 cells divided by IC50 in L. donovani axenic amastigotes [5] | IC50 at 70 h ([3]; L-6 cells (rat skeletal myoblasts)) [µM] |
| --- | --- | --- | --- | --- | --- | --- | --- | --- | --- | --- | --- | --- | --- | --- | --- | --- |
| COc1cc(C(=O)O)ccc1O [Compound 7, 3-Methoxy-4-hydroxybenzoic acid] | 138 ± 12.2 | – | > 595 | least active | 595 | 38.6 ± 5.9 | 153 ± 45.5 | > 500 | – | – | – | – | – | – | – | – |

Reference: PMC7456963, “HPLC-Based Activity Profiling for Antiprotozoal Compounds in Croton gratissimus and Cuscuta hyalina” (Frontiers in Pharmacology, 2020)
